Measured values reported in patent US11083729B2, “Methods of treating cancer with small molecule NF-κB inhibitors” (ImmuneTarget, Inc., priority 2017, dated 2021).

Biological target: T1, c-Rel protein (Homo sapiens, UniProt Q04864)
T1 sequence (Q04864 1-619): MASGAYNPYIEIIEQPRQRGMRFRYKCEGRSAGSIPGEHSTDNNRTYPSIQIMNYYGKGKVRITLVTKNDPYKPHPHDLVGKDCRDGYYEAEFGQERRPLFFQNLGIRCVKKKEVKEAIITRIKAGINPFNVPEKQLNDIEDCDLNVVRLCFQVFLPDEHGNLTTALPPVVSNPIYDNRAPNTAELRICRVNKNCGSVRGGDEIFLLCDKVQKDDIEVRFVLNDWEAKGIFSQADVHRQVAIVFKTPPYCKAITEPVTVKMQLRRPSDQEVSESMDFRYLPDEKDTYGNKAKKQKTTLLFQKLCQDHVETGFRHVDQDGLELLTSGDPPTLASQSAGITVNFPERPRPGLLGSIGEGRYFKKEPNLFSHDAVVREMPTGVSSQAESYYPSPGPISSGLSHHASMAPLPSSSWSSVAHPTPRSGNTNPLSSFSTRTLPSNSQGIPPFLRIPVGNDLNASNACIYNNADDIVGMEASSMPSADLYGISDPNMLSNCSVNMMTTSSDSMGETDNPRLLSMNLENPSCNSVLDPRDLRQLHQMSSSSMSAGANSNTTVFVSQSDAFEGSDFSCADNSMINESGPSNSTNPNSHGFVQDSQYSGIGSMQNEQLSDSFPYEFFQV
Test: Electrophoretic Mobility Shift Assay (EMSA), c-Rel binding to CD28RE oligonucleotide
Conditions: 10 nM c-Rel protein
Experimental: DNA binding reaction (20 μL) was carried out in 1×DNA Binding Buffer (10 mM Tris, 40 mM NaCl, 1 mM EDTA, 4% glycerol) with 10 nM c-Rel protein and 0.5 ng phosphor-labeled CD28RE oligonucleotide for 10 minutes at room temperature in 96-well plates. Test compounds, in serial dilutions, were added into each well, and further incubated for 15 minutes before loading onto native 5% polyacrylamide gel. Electrophoresis proceeded for 2.5 hours at 160V. Radioactive signals were quantified using Phospho-Imager. IC50 of compounds of example 1 to 75 were determined by quantifying the intensity of Rel/NF-κB inhibition in EMSA using phospho-imager. An example of EMSA data of the present invention is shown for compound 6 in FIG. 2.

SMILES | IC50 [nM]
COc1cccc2cc3c(=O)[nH]c(=O)nc-3oc12 [compound 1, 9-methoxy-2H-chromeno[2,3-d]pyrimidine-2,4(3H)-dione] | < 2000
CC(=O)OCCCCOc1ccc2cc3c(=O)[nH]c(=O)nc-3oc2c1Cl [compound 60, 4-((9-chloro-2,4-dioxo-3,4-dihydro-2H-chromeno[2,3-d]pyrimidin-8-yl)oxy)butyl acetate] | < 5000
COCCOCCOc1cc2oc3nc(=O)[nH]c(=O)c-3cc2cc1Cl [compound 64] | < 1000
O=C(O)COc1ccc2cc3c(=O)[nH]c(=O)nc-3oc2c1Cl [compound 56] | < 5000
O=C(O)CCCOc1ccc2cc3c(=O)[nH]c(=O)nc-3oc2c1Cl [compound 55] | < 5000
COc1cc(Cl)cc2cc3c(=O)[nH]c(=S)nc-3oc12 [compound 7, 7-chloro-9-methoxy-2-thioxo-2H-chromeno[2,3-d]pyrimidin-4(3H)-one] | < 2000
O=C(O)CCCCCOc1ccc2cc3c(=O)[nH]c(=O)nc-3oc2c1Cl [compound 53, 6-((9-chloro-2,4-dioxo-3,4-dihydro-2H-chromeno[2,3-d]pyrimidin-8-yl)oxy)hexanoic acid] | < 5000
CC(C)CCCOc1ccc2cc3c(=O)[nH]c(=O)nc-3oc2c1F [compound 47] | < 1000
COCCCCOc1ccc2cc3c(=O)[nH]c(=O)nc-3oc2c1F [compound 68] | < 1000
CCOc1ccc2cc3c(=O)[nH]c(=O)nc-3oc2c1 [compound 13, 8-ethoxy-2H-chromeno[2,3-d]pyrimidine-2,4(3H)-dione] | < 1000
COCCOCCOc1ccc2cc3c(=O)[nH]c(=O)nc-3oc2c1Cl [compound 62] | < 1000
CC(=O)OCCCOc1ccc2cc3c(=O)[nH]c(=O)nc-3oc2c1Cl [compound 59] | < 5000
COCCOCCOc1ccc2cc3c(=O)[nH]c(=O)nc-3oc2c1 [compound 61, 8-(2-(2-methoxyethoxy)ethoxy)-2H-chromeno[2,3-d]pyrimidine-2,4(3H)-dione] | < 1000
CCCCOc1ccc2cc3c(=O)[nH]c(=O)nc-3oc2c1 [compound 50] | < 1000
COCCOCCOc1cc2oc3nc(=O)[nH]c(=O)c-3cc2cc1F [compound 65] | < 1000
CCOc1cccc2cc3c(=O)[nH]c(=O)nc-3oc12 [compound 2, 9-ethoxy-2H-chromeno[2,3-d]pyrimidine-2,4(3H)-dione] | < 2000
O=c1nc2oc3cc(O)ccc3cc-2c(=O)[nH]1 [compound 11, 8-hydroxy-2H-chromeno[2,3-d]pyrimidine-2,4(3H)-dione] | < 1000

SMILES | IC50 [nM]
COc1ccc2oc3nc(=O)[nH]c(=O)c-3cc2c1 [compound 10, 7-methoxy-2H-chromeno[2,3-d]pyrimidine-2,4(3H)-dione] | < 1000
COCCOCCCOc1ccc2cc3c(=O)[nH]c(=O)nc-3oc2c1Cl [compound 72] | < 1000
COc1cc(Cl)cc2cc3c(=O)[nH]c(=O)nc-3oc12 [compound 3, 7-chloro-9-methoxy-2H-chromeno[2,3-d]pyrimidine-2,4(3H)-dione] | < 2000
Cc1ccc2cc3c(=O)[nH]c(=O)nc-3oc2c1 [compound 12, 8-methyl-2H-chromeno[2,3-d]pyrimidine-2,4(3H)-dione] | < 1000
CCCCn1c(=O)nc2oc3cc(OCC)ccc3cc-2c1=O [compound 24, 3-(n-butyl)-8-ethoxy-2H-chromeno[2,3-d]pyrimidine-2,4(3H)-dione] | < 1000
CCCOc1cc2oc3nc(=O)[nH]c(=O)c-3cc2cc1Cl [compound 20, 7-chloro-8-propoxy-2H-chromeno[2,3-d]pyrimidine-2,4(3H)-dione] | < 1000
CC(=O)OCCCCOc1ccc2cc3c(=O)[nH]c(=O)nc-3oc2c1 [compound 51] | < 1000
CCOc1ccc2cc3c(=O)[nH]c(=O)nc-3oc2c1Cl [compound 22, 9-chloro-8-ethoxy-2H-chromeno[2,3-d]pyrimidine-2,4(3H)-dione] | < 1000
COCCOCCCOc1cc2oc3nc(=O)[nH]c(=O)c-3cc2cc1Cl [compound 74] | < 1000
COCCCCOc1ccc2cc3c(=O)[nH]c(=O)nc-3oc2c1Cl [compound 66, 9-chloro-8-(4-methoxybutoxy)-2H-chromeno[2,3-d]pyrimidine-2,4(3H)-dione] | < 1000
COCCOCCCOc1cc2oc3nc(=O)[nH]c(=O)c-3cc2cc1F [compound 75, 7-fluoro-8-(3-(2-methoxyethoxy)propoxy)-2H-chromeno[2,3-d]pyrimidine-2,4(3H)-dione] | < 1000
CCOc1ccc2cc3c(=O)[nH]c(=O)nc-3sc2c1 [compound 49, 8-ethoxy-2H-thiochromeno[2,3-d]pyrimidine-2,4(3H)-dione] | < 1000
CCCCn1c(=O)nc2oc3cc(OCC)c(Cl)cc3cc-2c1=O [compound 26, 3-butyl-7-chloro-8-ethoxy-2H-chromeno[2,3-d]pyrimidine-2,4(3H)-dione] | < 1000
COCCOCCCOc1ccc2cc3c(=O)[nH]c(=O)nc-3oc2c1F [compound 73] | < 1000
COc1cc(Br)cc2cc3c(=O)[nH]c(=O)nc-3oc12 [compound 4, 7-bromo-9-methoxy-2H-chromeno[2,3-d]pyrimidine-2,4(3H)-dione] | < 2000
CCCOc1ccc2cc3c(=O)[nH]c(=O)nc-3oc2c1 [compound 19, 8-propoxy-2H-chromeno[2,3-d]pyrimidine-2,4(3H)-dione] | < 1000
COCCCCOc1cc2oc3nc(=O)[nH]c(=O)c-3cc2cc1F [compound 70] | < 1000

Now from value to compound:

IC50 [nM] | SMILES
< 1000 | COCCOCCOc1ccc2cc3c(=O)[nH]c(=O)nc-3oc2c1F [compound 63]
< 1000 | COCCCCOc1ccc2cc3c(=O)[nH]c(=O)nc-3oc2c1 [compound 67]
< 500 | CCCCCCOc1cc2oc3nc(=O)[nH]c(=O)c-3cc2cc1F [compound 31]
< 500 | CCCCCOc1ccc2cc3c(=O)[nH]c(=O)nc-3oc2c1Cl [compound 39]
< 1000 | CC(C)CCCOc1cc2oc3nc(=O)[nH]c(=O)c-3cc2cc1F [compound 35]
< 1000 | CCCCCCOc1ccc2cc3c(=O)[nH]c(=O)nc-3oc2c1 [compound 21, 8-(n-hexyloxy)-2H-chromeno[2,3-d]pyrimidine-2,4(3H)-dione]
< 500 | CC(C)(C)CCOc1cc2oc3nc(=O)[nH]c(=O)c-3cc2cc1F [compound 34]
< 500 | COc1cc(OC)c2cc3c(=O)[nH]c(=S)nc-3oc2c1 [compound 18, 6,8-dimethoxy-2-thioxo-2H-chromeno[2,3-d]pyrimidin-4(3H)-one]
< 500 | CCCCCCCOc1ccc2cc3c(=O)[nH]c(=O)nc-3oc2c1Cl [compound 42]
< 500 | CCCCOc1ccc2cc3c(=O)[nH]c(=O)nc-3oc2c1F [compound 45]
< 500 | CCCCCCOc1ccc2cc3c(=O)[nH]c(=O)nc-3oc2c1Cl [compound 44]
< 500 | CCOc1cc2oc3nc(=O)[nH]c(=O)c-3cc2cc1F [compound 28, 8-ethoxy-7-fluoro-2H-chromeno[2,3-d]pyrimidine-2,4(3H)-dione]
< 500 | Cc1ccc2cc3c(=O)[nH]c(=S)nc-3oc2c1 [compound 17, 8-methyl-2-thioxo-2H-chromeno[2,3-d]pyrimidin-4(3H)-one]
< 500 | CCCCCOc1cc2oc3nc(=O)[nH]c(=O)c-3cc2cc1F [compound 30]
< 500 | CC(C)CCOc1ccc2cc3c(=O)[nH]c(=O)nc-3oc2c1Cl [compound 40]
< 500 | CCCCOc1cc2oc3nc(=O)[nH]c(=O)c-3cc2cc1F [compound 29]
< 500 | COc1ccc2cc3c(=O)[nH]c(=S)nc-3oc2c1 [compound 8, 8-methoxy-2-thioxo-2H-chromeno[2,3-d]pyrimidin-4(3H)-one]
< 500 | CCCCCCOc1ccc2cc3c(=O)[nH]c(=O)nc-3oc2c1F [compound 46]
< 500 | CCCCCCCOc1ccc2cc3c(=O)[nH]c(=O)nc-3oc2c1F [compound 52]
< 500 | CC(C)CCOc1cc2oc3nc(=O)[nH]c(=O)c-3cc2cc1F [compound 33]
< 500 | O=c1[nH]c(=S)nc2oc3cc(O)ccc3cc1-2 [compound 16, 8-hydroxy-2-thioxo-2H-chromeno[2,3-d]pyrimidin-4(3H)-one]
< 500 | CC(C)COc1cc2oc3nc(=O)[nH]c(=O)c-3cc2cc1Cl [compound 38]
< 500 | COc1ccc2oc3nc(=S)[nH]c(=O)c-3cc2c1 [compound 15, 7-methoxy-2-thioxo-2H-chromeno[2,3-d]pyrimidin-4(3H)-one]
< 500 | CC(C)COc1ccc2cc3c(=O)[nH]c(=O)nc-3oc2c1F [compound 48]
< 500 | CCCCOc1ccc2cc3c(=O)[nH]c(=O)nc-3oc2c1Cl [compound 43]
